Experimental findings from paper PMC9295122, “Sialic Acid Derivatives Inhibit SiaT Transporters and Delay Bacterial Growth” (ACS Chemical Biology, 2022) are described below.

A word on the Kd: it is the concentration at which binding is half-saturated. In general, solubility refers to how much of the substance goes into solution per volume. By ΔTm is commonly meant the shift of the melting midpoint relative to a reference.

Like-named read-outs stand apart in the source and are kept apart here.

Data set [1] deals with T1, SaSiaT (Staphylococcus aureus, UniProt A0A0H2XJ46). The data set can be described thus: nanoDSF thermal shift assay, SaSiaT. Type of data set: binding. The following applies: for Average 1 / Average 2 / Average 3 / Replicate 1 / Replicate 2 / Replicate 3: SaSiaT Tm; for Average 1: average of experiment 1; for Average 2: average of experiment 2; for Average 3: average of experiment 3; for Replicate 1: experiment 1, second capillary; for Replicate 1 / Replicate 2 / Replicate 3 / Tm 1 / Tm2 / Tm 3 / Overall average (Tm): 1.25 mM; for Replicate 2: experiment 2, second capillary; for Replicate 3: experiment 3, second capillary; for Tm 1 / Tm2 / Tm 3 / Overall average (Tm): SaSiaT; for Tm 1: experiment 1, first capillary; for Tm2: experiment 2, first capillary; for Tm 3: experiment 3, first capillary; for Overall average (Tm): three experiments. A digest of the protocol: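 Protein at 2 μM in PBS with 0.0174% (w/v) DDM and ligand at 1.25 mM were heated from 25 to 95 °C at 1 °C/min, with 330/350 nm fluorescence ratio and its first derivative giving Tm. ΔTm is relative to the Neu5Ac Tm, averaged over 3 experiments with 2 capillaries each.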

Data set [2] deals with T1, SaSiaT. The data set can be described thus: Isothermal titration calorimetry, SaSiaT. The class given is binding. The protocol:
The binding thermodynamic analysis performed via isothermal titration calorimetry (ITC) provides insights into dissociation constants (Kd) and the binding driving forces of compounds 3a, 3e, and 3f with PmSiaT and SaSiaT.
Isothermal titration calorimetric experiments were performed on an ITC200 instrument (MicroCal, Northampton, USA) at 25 °C using standard instrument settings (reference power of 6 μcal s^–1, stirring speed of 750 rpm, feedback mode high, and filter period of 2 s). Protein solutions were dialyzed against ITC buffer (50 mM Tris–HCl, 150 mM NaCl, with 0.0174% (w/v) DDM, pH 8.0 at 5 °C) prior to the experiments, and all the samples were prepared using the dialysate buffer to minimize dilution effects. Protein concentrations were determined spectrophotometrically with the specific absorbance at 280 nm employing an extinction coefficient of 76,445 mol^–1 cm^–1 for PmSiaT and 75,750 M^–1 cm^–1 for SaSiaT. […] In a typical experiment, a 0.3–1.0 mM inhibitor solution was titrated to a solution containing 30–50 μM of PmSiaT or 13–20 μM of SaSiaT to ensure >90% saturation. Baseline correction, peak integration, and nonlinear regression analysis of experimental data were performed using the NITPIC (version 1.2.2.)[41] and SEDPHAT (version 12.1b)[42] software packages. The stoichiometry parameter was manually constrained to a value of 1. Experiments were performed in triplicate and the 68% confidence intervals from global fitting of three experiments were calculated as an estimate of the experimental error. All the titration curves can be found in Figures S10–S15.
Background: In ITC the heat of successive injections is recorded.

A further data set in a line: Solubility screen. The following applies: aqueous buffer, kinetic from dmso stock; 100 mM phosphate buffer, pH 7.4, 1% DMSO; read-out: solubility (solubility screening). Type of data set: physicochemical. The protocol:
The compounds were dissolved in 10 mM DMSO solutions. The solubility was assessed by dilution in 0.1 M phosphate buffer pH 7.4 to a concentration of 100 μM.

The next data set is described as follows: Plasma stability, human. The class given is in vitro ADME. The following applies: 1 μM, 37 °C. The protocol:
(§1) The reaction was started by the addition of the compound to blank plasma in LC vials after preincubation at 37 °C. The initial compound concentration was 1 μM. The reaction was stopped by the addition of ACN at seven time points (0, 0.5, 1, 2, 4, 6, and 23 h). Time point 0 h was about 15–20 s after spiking the plasma with the compound. The samples were centrifuged and the supernatant diluted and analyzed by LC–MS/MS to determine the % of compound remaining relative to the initial concentration of compound.

The nature of a further data set: Plasma stability, rat. Type of data set: in vitro ADME. The settings on record: 1 μM, 37 °C. On the procedure:
as §1

The next data set in a line: Plasma stability, dog. The class given is in vitro ADME. The following applies: 1 μM, 37 °C. On the procedure:
as §1

Data set [3] is described as follows: Plasma stability, mini pig. The following applies: 1 μM, 37 °C. Type of data set: in vitro ADME. The protocol: as §1
Data set [4] is described as follows: Plasma-protein binding by RED, human. Type of data set: in vitro ADME. The following applies: pH 7.2, read-out: Plasma-protein binding by RED (% unbound compound, average n=2). On the procedure: (§2) The assay was run in a deep well plate containing RED inserts with semipermeable dialysis membranes. The reaction was started by adding the compounds to a blank plasma in a 5 μM concentration. Opposite to the blank plasma was a compartment containing isotonic sodium–phosphate buffer (pH 7.2) separated from the plasma by the membrane. The plate was equilibrated in a water bath at 37 °C for 4 h. Samples from both the plasma and the buffer side were matrix compensated before protein precipitation. The samples were centrifuged, and the supernatants were diluted and analyzed by LC–MS/MS to determine the % unbound compound. Two incubations per compound per species.

Data set [5] in a line: Plasma-protein binding by RED, rat. The class given is in vitro ADME. The settings on record: pH 7.2, read-out: Plasma-protein binding by RED (% unbound compound, average n=2). On the procedure:
as §2

Where [6] appears, read: ITC, 25 °C, read-out: SaSiaT Kd.

T1 sequence (A0A0H2XJ46 entry or part of it): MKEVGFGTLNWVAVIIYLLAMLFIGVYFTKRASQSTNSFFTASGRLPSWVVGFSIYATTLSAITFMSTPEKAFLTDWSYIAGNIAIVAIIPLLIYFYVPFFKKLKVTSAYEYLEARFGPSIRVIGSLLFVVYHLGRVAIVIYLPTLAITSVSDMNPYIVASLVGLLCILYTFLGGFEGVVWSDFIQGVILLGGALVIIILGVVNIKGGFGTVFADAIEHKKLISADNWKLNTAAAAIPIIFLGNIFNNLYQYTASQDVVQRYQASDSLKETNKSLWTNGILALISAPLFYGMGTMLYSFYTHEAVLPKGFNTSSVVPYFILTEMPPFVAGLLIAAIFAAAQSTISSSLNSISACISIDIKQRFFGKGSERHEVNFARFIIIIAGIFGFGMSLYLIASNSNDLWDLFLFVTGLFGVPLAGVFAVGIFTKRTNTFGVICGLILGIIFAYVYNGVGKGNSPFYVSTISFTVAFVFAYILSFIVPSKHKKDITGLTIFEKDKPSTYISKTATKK

Regarding `CC(=O)NC1C(OCc2ccccc2)CC(O)(C(=O)O)OC1C(O)C(O)CO` (stereo not shown) [Compound 3a], at SaSiaT [1], the “Average 1” value was found to be 56.2 °C, the “Average 2” value was 55.7 °C, the “Average 3” value came to 56.3 °C and the “Replicate 1” value amounted to 56.1 °C. Further, at SaSiaT [1], the “Replicate 2” value came out at 55.8 °C, the “Replicate 3” value was determined as 56.1 °C, the “Tm 1” value amounted to 56.2 °C and the “Tm2” value came to 55.7 °C. On SaSiaT [1], the “Tm 3” value was 56.6 °C and the “Overall average (Tm)” value is 56.1 °C. Moreover, at SaSiaT [2] (ITC), the “SaSiaT -TΔS°” value was -16 kcal/mol, the “SaSiaT ΔG°” value is -6.91 kcal/mol and the “SaSiaT ΔH°” value is 9.08 kcal/mol. For the same compound, the Kd at SaSiaT [2] (setting [6]) was found to be 8.8 ± 2.7 µM. The solubility in the data set “Solubility screen” was > 95 µM. The “In vitro plasma stability (% compound remaining after 23 h)” value in “Plasma stability, human” turned out to be 100%. For the same compound, in the data set “Plasma stability, rat”, the “In vitro plasma stability (% compound remaining after 23 h)” value was determined as 100%. The “In vitro plasma stability (% compound remaining after 23 h)” value in the data set “Plasma stability, dog” is 100%. In addition, in data set [3], the “In vitro plasma stability (% compound remaining after 23 h)” value came out at 100%. In data set [4], the fraction unbound at 4 h, 5 μM stood at 0.85. In addition, the fraction unbound at 4 h, 5 μM in [5] was 0.72.

In the case of `CC(=O)NC1C(OCc2cc(F)cc(F)c2)CC(O)(C(=O)O)OC1C(O)C(O)CO` (stereo not shown) [Compound 3e], on SaSiaT [1], the “Average 1” value was 57.3 °C, the “Average 2” value turned out to be 56.7 °C, the “Average 3” value amounted to 57.1 °C and the “Replicate 1” value came out at 57.3 °C. In addition, on SaSiaT [1], the “Replicate 2” value was determined as 56.7 °C, the “Replicate 3” value is 56.9 °C, the “Tm 1” value worked out at 57.3 °C and the “Tm2” value stood at 56.6 °C. On SaSiaT [1], the “Tm 3” value is 57.2 °C and the “Overall average (Tm)” value was determined as 57.0 °C. For the same compound, on SaSiaT [2] (ITC), the “SaSiaT -TΔS°” value is -16.5 kcal/mol, the “SaSiaT ΔG°” value is -7.36 kcal/mol and the “SaSiaT ΔH°” value was 9.15 kcal/mol. Also, the equilibrium dissociation constant (Kd) at SaSiaT [2] (setting [6]) came to 4.1 ± 2.1 µM. For the same compound, on SaSiaT [2] (compared to Neu5Ac), the “affinity increase for SaSiaT” value turned out to be 31 fold. For the same compound, in “Solubility screen”, the solubility was > 95 µM. The “In vitro plasma stability (% compound remaining after 23 h)” value in “Plasma stability, human” came to 100%. Moreover, in “Plasma stability, rat”, the “In vitro plasma stability (% compound remaining after 23 h)” value is 100%. In addition, in “Plasma stability, dog”, the “In vitro plasma stability (% compound remaining after 23 h)” value is given as 100%. The “In vitro plasma stability (% compound remaining after 23 h)” value in data set [3] is listed as 100%. Further, the fraction unbound at 4 h, 5 μM in data set [4] worked out at 0.74. Besides, in data set [5], the fraction unbound at 4 h, 5 μM amounted to 0.67.

As for `CC(=O)NC1C(OCc2cc(Br)cc(Br)c2)CC(O)(C(=O)O)OC1C(O)C(O)CO` (stereo not shown) [Compound 3f], on SaSiaT [1], the “Average 1” value is 53.1 °C, the “Average 2” value came to 54.0 °C, the “Average 3” value was 54.4 °C and the “Replicate 1” value was determined as 53.1 °C. At SaSiaT [1], the “Replicate 2” value was determined as 54.0 °C, the “Replicate 3” value amounted to 54.3 °C, the “Tm 1” value is 53.1 °C and the “Tm2” value is 54.0 °C. Further, at SaSiaT [1], the “Tm 3” value is 54.4 °C and the “Overall average (Tm)” value is 53.8 °C. Further, at SaSiaT [1] (nanoDSF, relative to Neu5Ac, ligand 1.25 mM, <−5 °C nonbinder), the ΔTm stood at 2.6 ± 0.7 °C. Moreover, on SaSiaT [2] (ITC), the “SaSiaT -TΔS°” value was -13.1 kcal/mol, the “SaSiaT ΔG°” value is -6.55 kcal/mol and the “SaSiaT ΔH°” value is 6.57 kcal/mol. The Kd at SaSiaT [2] (setting [6]) stood at 15.7 ± 7.3 µM. In the data set “Solubility screen”, the solubility was > 95 µM. In addition, in the data set “Plasma stability, human”, the “In vitro plasma stability (% compound remaining after 23 h)” value is given as 91%. Further, the “In vitro plasma stability (% compound remaining after 23 h)” value in “Plasma stability, rat” is recorded as 100%. For the same compound, in the data set “Plasma stability, dog”, the “In vitro plasma stability (% compound remaining after 23 h)” value was determined as 81%. For the same compound, the “In vitro plasma stability (% compound remaining after 23 h)” value in data set [3] is listed as 39%. Further, in [4], the fraction unbound at 4 h, 5 μM was 0.27. Also, the fraction unbound at 4 h, 5 μM in data set [5] turned out to be 0.21.

Take `CC(=O)N[C@H]1[C@H]([C@H](O)[C@H](O)CO)OC(O)(C(=O)O)C[C@@H]1O` (stereo partly shown) [Neu5Ac, 5-N-acetyl neuraminic acid, reference compound]: at SaSiaT [1], the “Average 1” value was 51.3 °C, the “Average 2” value turned out to be 51.1 °C, the “Average 3” value was 51.3 °C and the “Replicate 1” value turned out to be 51.4 °C. In addition, on SaSiaT [1], the “Replicate 2” value was found to be 51.4 °C, the “Replicate 3” value is 51.0 °C, the “Tm 1” value turned out to be 51.3 °C and the “Tm2” value was found to be 50.9 °C. Moreover, at SaSiaT [1], the “Tm 3” value came out at 51.6 °C and the “Overall average (Tm)” value stood at 51.2 °C. The same compound returned an equilibrium dissociation constant (Kd) on SaSiaT [2] of 130 ± 35 µM. On SaSiaT [2] (ITC), the “SaSiaT -TΔS°” value is -14.7 kcal/mol, the “SaSiaT ΔG°” value is -5.31 kcal/mol and the “SaSiaT ΔH°” value amounted to 9.37 kcal/mol.
